# Assay results published in ChEMBL document CHEMBL1146317, “2-(2,2,2-Trifluoroethyl)-5,6-dichlorobenzimidazole derivatives as potent androgen receptor antagonists” (Bioorg Med Chem Lett, 2007).
# Activity calls are given as the source filed them. The rule behind the calls is not given here.
# Organism: Rattus norvegicus
# Test: Inhibition of testoterone-induced prostate weight in castrated immature Sprague-Dawley rat at 2 mg/day relative to control
# Assay type: functional, Prostate gland
# Settings: not given
row,Compound,Inhibition
1,N#Cc1cccc(Cn2c(CC(F)(F)F)nc3cc(Cl)c(Cl)cc32)c1,70%
2,FC(F)(F)Cc1nc2cc(Cl)c(Cl)cc2n1Cc1ccc(OCc2ccccc2)cc1,46%
3,O=C(O)c1ccc(Cn2c(CC(F)(F)F)nc3cc(Cl)c(Cl)cc32)cc1,38%
4,O=C(Cn1c(CC(F)(F)F)nc2cc(Cl)c(Cl)cc21)c1ccc([N+](=O)[O-])cc1,71%
5,FC(F)(F)Cc1nc2cc(Cl)c(Cl)cc2n1Cc1ccc(SC(F)(F)F)cc1,13%
6,FC(F)(F)Cc1nc2cc(Cl)c(Cl)cc2n1Cc1ccccc1,79%
7,Fc1ccc(Cn2c(CC(F)(F)F)nc3cc(Cl)c(Cl)cc32)cc1,80%
8,Cc1ccccc1Cn1c(CC(F)(F)F)nc2cc(Cl)c(Cl)cc21,73%
9,CC(O)(c1nc2cc(Cl)c(Cl)cc2[nH]1)C(F)(F)F (centres undefined),74%
10,FC(F)(F)Cc1nc2cc(Cl)c(Cl)cc2n1Cc1ccccc1Cl,90%
11,O=C(Cn1c(CC(F)(F)F)nc2cc(Cl)c(Cl)cc21)c1ccc(Br)cc1,27%
12,FC(F)(F)Cc1nc2cc(Cl)c(Cl)cc2n1Cc1ccccc1-c1cccnc1,80%
13,FC(F)(F)Cc1nc2cc(Cl)c(Cl)cc2n1Cc1ccc(C(F)(F)F)cc1C(F)(F)F,13%
14,Fc1ccc(OCCn2c(CC(F)(F)F)nc3cc(Cl)c(Cl)cc32)cc1,40%
15,OC(c1nc2cc(Cl)c(Cl)cc2n1Cc1ccccc1)C(F)(F)F (centres undefined),49%
16,CCOC(=O)c1ccc(Cn2c(CC(F)(F)F)nc3cc(Cl)c(Cl)cc32)cc1,56%
17,Fc1c(F)c(F)c(Cn2c(CC(F)(F)F)nc3cc(Cl)c(Cl)cc32)c(F)c1F,19%
18,OC(O)(c1nc2cc(Cl)c(Cl)cc2[nH]1)C(F)(F)F,94%
19,OC(c1nc2cc(Cl)c(Cl)cc2n1Cc1ccccn1)C(F)(F)F (centres undefined),84%
20,OC(O)(c1nc2cc(Cl)c(Cl)cc2n1Cc1ccccc1)C(F)(F)F,85%
21,Fc1cccc(Cn2c(CC(F)(F)F)nc3cc(Cl)c(Cl)cc32)c1,55%

row,Compound,Inhibition
1,COCn1c(C(C)(O)C(F)(F)F)nc2cc(Cl)c(Cl)cc21 (centres undefined),88%
2,N#Cc1ccccc1Cn1c(CC(F)(F)F)nc2cc(Cl)c(Cl)cc21,74%
3,O=C(Cn1c(CC(F)(F)F)nc2cc(Cl)c(Cl)cc21)c1ccccn1,76%
4,FC(F)(F)Cc1nc2cc(Cl)c(Cl)cc2n1Cc1ccc(Cl)cc1,77%
5,N#Cc1ccc(OCCn2c(CC(F)(F)F)nc3cc(Cl)c(Cl)cc32)cc1,86%
6,FC(F)(F)Cc1nc2cc(Cl)c(Cl)cc2n1Cc1ccc(Br)cc1,75%
7,FC(F)(F)Cc1nc2cc(Cl)c(Cl)cc2n1Cc1cccc(OC(F)(F)F)c1,26%
8,CC(O)(c1nc2cc(Cl)c(Cl)cc2n1CC#N)C(F)(F)F (centres undefined),54%
9,FC(F)(F)Cc1nc2cc(Cl)c(Cl)cc2n1Cc1cccc(Cl)c1,35%
10,Fc1cccc(OCCn2c(CC(F)(F)F)nc3cc(Cl)c(Cl)cc32)c1,22%
11,Cc1cccc(Cn2c(CC(F)(F)F)nc3cc(Cl)c(Cl)cc32)c1,31%
12,CCC(=O)Cn1c(CC(F)(F)F)nc2cc(Cl)c(Cl)cc21,64%
13,O=[N+]([O-])c1cccc(Cn2c(CC(F)(F)F)nc3cc(Cl)c(Cl)cc32)c1,49%
14,FC(F)(F)Cc1nc2cc(Cl)c(Cl)cc2n1Cc1ccc(C(F)(F)F)cc1,75%
15,FC(F)(F)Cc1nc2cc(Cl)c(Cl)cc2n1Cc1ccccc1-c1ccccn1,89%
16,Fc1ccccc1Cn1c(CC(F)(F)F)nc2cc(Cl)c(Cl)cc21,77%
17,O=C(Cn1c(CC(F)(F)F)nc2cc(Cl)c(Cl)cc21)c1ccc(Cl)cc1,33%
18,COc1ccccc1C(=O)Cn1c(CC(F)(F)F)nc2cc(Cl)c(Cl)cc21,10%
19,CS(=O)(=O)c1ccc(Cn2c(CC(F)(F)F)nc3cc(Cl)c(Cl)cc32)cc1,32%
20,FC(F)(F)Cc1nc2cc(Cl)c(Cl)cc2[nH]1,90%
21,O=S(=O)(Cc1ccccc1Cn1c(CC(F)(F)F)nc2cc(Cl)c(Cl)cc21)c1ccccc1,74%

row,Compound,Inhibition
1,CC(O)(CS(=O)(=O)c1ccc(F)cc1)C(=O)Nc1ccc(C#N)c(C(F)(F)F)c1 (centres undefined) [BICALUTAMIDE],70%
2,FC(F)(F)Cc1nc2cc(Cl)c(Cl)cc2n1Cc1ccccc1-c1ccccc1,79%
3,O=[N+]([O-])c1ccccc1Cn1c(CC(F)(F)F)nc2cc(Cl)c(Cl)cc21,81%
4,O=C(Cn1c(CC(F)(F)F)nc2cc(Cl)c(Cl)cc21)c1ccccc1,38%
5,FC(F)(F)Cc1nc2cc(Cl)c(Cl)cc2n1Cc1ccccc1C(F)(F)F,86%
6,FC(F)(F)Cc1nc2cc(Cl)c(Cl)cc2n1CCOc1ccc(Cl)cc1,48%
7,FC(F)(F)Cc1nc2cc(Cl)c(Cl)cc2n1Cc1ccccc1-c1ccncc1,42%
8,O=C(Cn1c(CC(F)(F)F)nc2cc(Cl)c(Cl)cc21)c1cccc([N+](=O)[O-])c1,14%
9,Oc1ccc(Cn2c(CC(F)(F)F)nc3cc(Cl)c(Cl)cc32)cc1,28%
10,N#Cc1ccc(Cn2c(CC(F)(F)F)nc3cc(Cl)c(Cl)cc32)cc1,68%
11,COc1ccc(Cn2c(CC(F)(F)F)nc3cc(Cl)c(Cl)cc32)cc1,51%
12,OC(c1nc2cc(Cl)c(Cl)cc2[nH]1)C(F)(F)F (centres undefined),96%
13,FC(F)(F)Cc1nc2cc(Cl)c(Cl)cc2n1Cc1ccccn1,89%
14,OCCn1c(CC(F)(F)F)nc2cc(Cl)c(Cl)cc21,54%
15,COc1ccccc1Cn1c(CC(F)(F)F)nc2cc(Cl)c(Cl)cc21,51%
16,FC(F)(F)Cc1nc2cc(Cl)c(Cl)cc2n1Cc1ccc(OC(F)(F)F)cc1,35%
17,FC(F)(F)Cc1nc2cc(Cl)c(Cl)cc2n1Cc1cccc(C(F)(F)F)c1,74%
18,FC(F)(F)Cc1nc2cc(Cl)c(Cl)cc2n1Cc1ccccc1Br,84%
19,O=C(Cn1c(CC(F)(F)F)nc2cc(Cl)c(Cl)cc21)c1ccc(F)cc1,67%
20,O=[N+]([O-])c1ccc(Cn2c(CC(F)(F)F)nc3cc(Cl)c(Cl)cc32)cc1,61%
21,O=C(Cn1c(CC(F)(F)F)nc2cc(Cl)c(Cl)cc21)c1cccs1,43%

# Same assay, conditions: Prostate gland
row,Compound,Activity
1,CCn1c(C(C)(O)C(F)(F)F)nc2cc(Cl)c(Cl)cc21 (centres undefined),inactive
2,Cn1c(C(C)(O)C(F)(F)F)nc2cc(Cl)c(Cl)cc21 (centres undefined),inactive
3,O=C(Cn1c(CC(F)(F)F)nc2cc(Cl)c(Cl)cc21)c1cccnc1,inactive
4,COc1cccc(Cn2c(CC(F)(F)F)nc3cc(Cl)c(Cl)cc32)c1,inactive
5,COc1cccc(C(=O)Cn2c(CC(F)(F)F)nc3cc(Cl)c(Cl)cc32)c1,inactive
6,COc1ccc(C(=O)Cn2c(CC(F)(F)F)nc3cc(Cl)c(Cl)cc32)c(OC)c1,inactive

# Organism: Rattus norvegicus
# Test: Inhibition of testoterone-induced prostate weight in castrated immature Sprague-Dawley rat at 1 mg/day relative to control
# Assay type: functional, Prostate gland
# Settings: not given
row,Compound,Inhibition
1,FC(c1nc2cc(Cl)c(Cl)cc2[nH]1)C(F)(F)F (centres undefined),81%

# Organism: Rattus norvegicus
# Test: Inhibition of testoterone-induced prostate weight in castrated immature Sprague-Dawley rat
# Assay type: functional, Prostate gland
# Settings: not given
row,Compound,ID50
1,FC(F)(F)Cc1nc2cc(Cl)c(Cl)cc2n1Cc1ccccc1,0.37 mg/day
2,Fc1ccc(Cn2c(CC(F)(F)F)nc3cc(Cl)c(Cl)cc32)cc1,0.19 mg/day
3,FC(F)(F)Cc1nc2cc(Cl)c(Cl)cc2n1Cc1ccccc1Cl,0.26 mg/day
4,O=C(Cn1c(CC(F)(F)F)nc2cc(Cl)c(Cl)cc21)c1ccccn1,0.47 mg/day
5,FC(F)(F)Cc1nc2cc(Cl)c(Cl)cc2n1Cc1ccc(Cl)cc1,0.28 mg/day
6,FC(F)(F)Cc1nc2cc(Cl)c(Cl)cc2n1Cc1ccc(Br)cc1,0.13 mg/day
7,FC(F)(F)Cc1nc2cc(Cl)c(Cl)cc2n1Cc1ccccc1-c1ccccn1,0.4 mg/day
8,Fc1ccccc1Cn1c(CC(F)(F)F)nc2cc(Cl)c(Cl)cc21,0.82 mg/day
9,CC(O)(CS(=O)(=O)c1ccc(F)cc1)C(=O)Nc1ccc(C#N)c(C(F)(F)F)c1 (centres undefined) [BICALUTAMIDE],0.23 mg/day
10,FC(F)(F)Cc1nc2cc(Cl)c(Cl)cc2n1Cc1ccccc1-c1ccccc1,0.55 mg/day
11,O=[N+]([O-])c1ccccc1Cn1c(CC(F)(F)F)nc2cc(Cl)c(Cl)cc21,0.95 mg/day
12,FC(F)(F)Cc1nc2cc(Cl)c(Cl)cc2n1Cc1cccc(C(F)(F)F)c1,0.4 mg/day
13,FC(F)(F)Cc1nc2cc(Cl)c(Cl)cc2n1Cc1ccccc1Br,0.38 mg/day

# Organism: Rattus norvegicus
# Test: Toxicity in castrated immature Sprague-Dawley rat at 2 mg/day
# Settings: in vivo
row,Compound,Activity
1,FC(F)(F)C(F)(F)c1nc2cc(Cl)c(Cl)cc2[nH]1,Toxic
